In patent publication US9636323B2, “Method of treating cancer that overexpresses TopBP1” (Baylor College of Medicine, priority 2014, dated 2017):
Several values for one entry are separate records, joined by “and”; a condition that tells them apart may be missing. Equal values may be shown once. Read-outs that look alike come from different tables or passages of the source.

Key:
[1] = biological target: T1, TopBP1/E2F1 interaction in HEK293T cells (Homo sapiens, UniProt Q92547); assay: Co-immunoprecipitation of overexpressed E2F1 and TopBP1; type: cell-based; conditions: 5 h
T1 construct: expressed in transfected cells
T1 sequence (Q92547 whole entry): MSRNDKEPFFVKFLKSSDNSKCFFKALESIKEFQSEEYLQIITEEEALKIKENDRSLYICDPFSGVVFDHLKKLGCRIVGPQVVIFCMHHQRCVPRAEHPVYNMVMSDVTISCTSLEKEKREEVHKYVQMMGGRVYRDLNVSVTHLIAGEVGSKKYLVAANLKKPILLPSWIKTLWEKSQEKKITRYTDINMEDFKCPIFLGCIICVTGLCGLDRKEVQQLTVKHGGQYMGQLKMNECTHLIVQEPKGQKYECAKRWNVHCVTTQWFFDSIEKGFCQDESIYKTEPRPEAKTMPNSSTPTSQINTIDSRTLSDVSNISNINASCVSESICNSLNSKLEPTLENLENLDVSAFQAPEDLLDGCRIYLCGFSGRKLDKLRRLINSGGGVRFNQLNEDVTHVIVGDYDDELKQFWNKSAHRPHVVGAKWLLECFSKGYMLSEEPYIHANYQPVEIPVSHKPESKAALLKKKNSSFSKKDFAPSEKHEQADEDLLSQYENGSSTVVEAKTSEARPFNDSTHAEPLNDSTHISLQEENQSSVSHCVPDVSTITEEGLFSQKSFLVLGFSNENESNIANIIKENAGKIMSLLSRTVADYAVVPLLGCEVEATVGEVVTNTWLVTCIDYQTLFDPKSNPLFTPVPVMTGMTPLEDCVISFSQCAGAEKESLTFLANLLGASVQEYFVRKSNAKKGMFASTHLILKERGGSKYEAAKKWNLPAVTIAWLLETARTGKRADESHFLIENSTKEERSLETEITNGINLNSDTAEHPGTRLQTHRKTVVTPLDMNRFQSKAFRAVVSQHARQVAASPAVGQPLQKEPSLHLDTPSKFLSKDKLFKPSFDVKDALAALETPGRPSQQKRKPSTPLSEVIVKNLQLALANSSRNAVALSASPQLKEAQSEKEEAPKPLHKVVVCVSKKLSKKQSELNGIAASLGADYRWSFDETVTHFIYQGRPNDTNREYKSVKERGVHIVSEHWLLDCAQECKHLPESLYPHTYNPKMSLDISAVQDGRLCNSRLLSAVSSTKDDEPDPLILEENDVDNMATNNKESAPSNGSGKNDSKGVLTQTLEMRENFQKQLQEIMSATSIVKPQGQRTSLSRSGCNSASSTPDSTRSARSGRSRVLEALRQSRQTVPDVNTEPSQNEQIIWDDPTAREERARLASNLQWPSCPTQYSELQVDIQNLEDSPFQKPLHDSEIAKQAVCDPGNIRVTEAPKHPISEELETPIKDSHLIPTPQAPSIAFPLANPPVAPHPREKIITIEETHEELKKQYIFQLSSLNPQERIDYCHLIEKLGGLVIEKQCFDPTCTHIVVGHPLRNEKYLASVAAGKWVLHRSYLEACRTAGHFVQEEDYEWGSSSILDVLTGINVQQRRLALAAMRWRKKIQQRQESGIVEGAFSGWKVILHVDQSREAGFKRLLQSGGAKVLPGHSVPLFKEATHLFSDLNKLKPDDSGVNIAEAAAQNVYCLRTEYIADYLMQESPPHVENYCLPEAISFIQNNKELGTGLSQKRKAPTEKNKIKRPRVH
Experimental: MDA-MB468 cells were lysed with TNN buffer (Liu et al. 2003). An aliquot of cell lysates was lysed with SDS lysis buffer and the rest of cell lysates were incubated with appropriate antibodies or beads at 4° C. for 3-12 h. Anti-FLAG beads (Sigma) were washed three times with TNN buffer. Immunoprecipitates were fractionated by SDS-PAGE and electro-transferred to Immobilon-P membrane (Millipore). Equal amount of protein loading was validated with Ponceau-S staining. The specific signals were detected by incubating with appropriate antibody. All primary antibodies were used at 1:1000 dilution and horseradish peroxidase (HRP)-conjugated secondary antibodies were used at 1:5000 dilution for immunoblotting. E2F1 (C-20 and KH-95), p53 (FL393), p63 (4A4 and H-129), p73 (H-79), p21 (C-19), Bax (N-20), GST (B-14), c-Myc (A14), Miz1 (H-190), Chk1 (G4), Actin (C-2) and GAPDH (6C5) antibodies were purchased from Santa Cruz. TopBP1 (mouse monoclonal) and Aid antibodies were purchased from BD Transduction Laboratories. TopBP1 (BL893, Rabbit polyclonal) antibody was purchased from Bethyl. Mouse monoclonal anti-phospho-γH2AX was purchased from Millipore. Phospho-Chk1 (Ser345) antibody was purchased from Cell signaling. FLAG (F7425) antibody was purchased from Sigma. Mouse monoclonal anti-p73 (IMG-246) was purchased from IMGENEX.

NCI-60 cancer cell lines = conditions: NCI-DTP data, cited from earlier work
MDA-MB231 cells = assay: MTS assay, MDA-MB231; type: cell-based, human
Experimental: (§1) Then 50 μl of MTS reagent (CellTiter 96® AQueous One Solution Cell Proliferation Assay, Promega) was added to each well, covered from light and incubated for 1 h at 37.0 incubator to develop purple color. The samples were measured at 490 nm in a plate reader (BioTek Synergy HT) against a blank 48-well plate. Each assay was done in triplicate.

BT549 = conditions: NCI-DTP database; cited from earlier work
MCF7 cells = assay: Caspase 3/7 activity assay, MCF7; type: cell-based, human; conditions: 2.5 μM overnight
Experimental: (§2) The apoptosis was measured by Caspase-Glo® 3/7 assay (Promega) following the manufacturer's protocol. The cells were plated in 6-well tissue culture dish (10^4 cells/well) (BD Falcon) in respective media. […] The blank reactions were prepared per direction. Equal volume of Caspase-Glo® 3/7 reagents were applied to each well. A luminometer (Sirius) was used to quantitate luminescence.

[2] = tested on: E2F1, p63/p73 and NF-Y target genes; assay: Real-time RT-PCR of E2F1, p63/p73 and NF-Y target genes in MDA-MB468 cells; type: cell-based, human; conditions: 2.5 μM, 5 h
Experimental: RNA was isolated using TRIzol method (Invitrogen). Quantitative reverse transcription-PCR (RT-PCR) was performed in triplicate using the forward and reverse primers ((Chowdhury et al. 2014) Supplementary FIG. 18) on an MX3005P thermal cycler using SYBR green dye method to observe the progress of the reactions with ROX dye, which was added as reference. GAPDH was run in parallel with target genes.

rats = conditions: cited from earlier work
BT549 cells = assay: Caspase-Glo 3/7 activity assay, BT549; type: cell-based, human; conditions: for Calcein AM-induced apoptosis: 17 h
Experimental: as §2
(§3) To prepare TopBP1 knockdown stable cell line, MDA-MB468 cells were infected with lentivirus expressing TopBP1 shRNA (Liu et al. 2011) as well as scramble shRNA, separately. The infected cells were grown for 48 h followed by selection with puromycin (2 μg/ml). After selection, the knockdown was confirmed by Western blotting before further experiments. Two different pLKO-shTopBP1 (#1 and #2) constructs (Open Biosystems, RHS4533-NM_007027) were used to deplete TopBP1 in MDA-MB468 cells. Additional two pSuper-shTopBP1 constructs (Liu et al. 2004) were used to knock down TopBP1 in HEK293 cells. Two pSuper-shE2F1 constructs were used to deplete E2F1: shE2F1#1 (described previously (Liu et al. 2004)), and shE2F1#2 (target sequence 5′-[…]-3′). The target sequence for pSuperior-shE2F1 is the same as pSuper-shE2F1#1. To deplete p63, shp63alpha pLKO.1-puro (from Addgene, 19120) was used. TP73 MISSION shRNA (shp73 pLKO.1-puro) was purchased from Sigma (TRCN00002722587).

MDA-MB468 cells [3] = assay: Colony formation assay; type: cell-based, human; conditions: 16 h treatment, then 8 days without drug
Experimental: MDA-MB468 cells were plated in 6-well plates at 200 cells/well. […] Cells were grown in fresh media without drugs for additional 8 days to form colonies, when each colony contained more than 50 cells. Plates were then stained with […] crystal violet (0.5 g Crystal violet, 25 ml methanol and 75 ml H2O). Cell number was counted.

MDA-MB468 cells [4] = assay: MTS assay, MDA-MB468; type: cell-based, human; conditions: 5 h
Experimental: as §1

HEK293 cells = assay: Caspase-Glo 3/7 activity assay, HEK293; type: cell-based, human; conditions: 2.5 μM overnight
Experimental: as §2, §3

[5] = tested on: McA-RH7777 rat hepatoma cells; assay: Apoptosis in rat tumor cells; type: cell-based
Experimental: as §2

Jurkat-T cells = assay: Caspase 3/7 activation assay, Jurkat-T; type: cell-based; conditions: 2.5 μM, 7 hours
Experimental: as §2

TopBP1/Miz1 interaction = biological target: T2, TopBP1/Miz1 interaction (Homo sapiens, UniProt Q92547); assay: Co-immunoprecipitation in BT549 cells, TopBP1/Miz1; type: cell-based; conditions: 2.5 μM, 3 h
T2 construct: expressed in transfected cells; host or cells: BT549
T2 sequence (Q92547 whole entry): as above

[6] = tested on: 4T1 mouse breast tumor cells; assay: Apoptosis in mouse tumor cells; type: cell-based
Experimental: as §2

[7] = tested on: E2F sites of the p68 subunit of DNA polymerase α promoter; assay: pKL12 / pKL12-E2FAB promoter construct assay; type: cell-based; conditions: wild-type versus mutated E2F sites

CC(=O)OCOC(=O)CN(CC(=O)OCOC(C)=O)Cc1cc2c(cc1OC(C)=O)Oc1cc(OC(C)=O)c(CN(CC(=O)OCOC(C)=O)CC(=O)OCOC(C)=O)cc1C21OC(=O)c2ccccc21 [Calcein AM, Calcein AM (acetoxymethyl ester)]
interaction between overexpressed E2F1 and TopBP1 [1]: inhibited the interaction between overexpressed E2F1 and TopBP1
GI50 (NCI-60 cancer cell lines; read-out: average GI50 over all 60 cell lines): 662 nM
GI50 (NCI-60 cancer cell lines; read-out: highest GI50 of the 60 cell lines): 11000 nM
GI50 (NCI-60 cancer cell lines; read-out: lowest GI50 of the 60 cell lines): 10 nM
anti-apoptotic activity of overexpressed TopBP1 (doxorubicin resistance) (MDA-MB231 cells; AdTopBP1-infected cells, doxorubicin, Calcein AM 2.5 μM): blocked
proliferation (MTS) (MDA-MB231 cells; increasing concentrations, 5 h, versus MCF10A): preferentially inhibited the proliferation
GI50 (BT549): < 400 nM and 270 nM
apoptosis (caspase 3/7 activity) (MCF7 cells): induced apoptosis
E2F1 pro-apoptotic target genes (p73, Apaf1, caspase 3) [2]: up-regulated
NF-Y target genes (Cdk1, Cdc25C, Cyclin A2) [2]: down-regulation
p63/p73 target genes (Bax, Noxa, Hdm2) [2]: up-regulation
induction of E2F1, p63/p73 and NF-Y target gene expression ([2]; TopBP1-depleted cells): less significant
oral LD50 (rats): 14500 mg/kg
concentration at which apoptosis was induced (BT549 cells; 16 h): ≥ 1 µM
Calcein AM response, caspase activation (BT549 cells; E2F1 depleted by two shRNA constructs, 2.5 μM, 16 h): attenuated
Calcein AM-induced apoptosis (BT549 cells; p63 depleted, 2.5 μM): decreased
Calcein AM-induced apoptosis (BT549 cells; p73 depleted, 2.5 μM): decreased
concentration at which inhibition of colony formation was apparent (MDA-MB468 cells [3]): ≥ 0.1 µM
doxorubicin sensitivity (MTS) (MDA-MB468 cells [4]; TopBP1-depleted cells, 2.5 μM): failed to cast the same effect
doxorubicin sensitivity (MTS) (MDA-MB468 cells [4]; co-treated with doxorubicin, Calcein AM 2.5 μM): greatly enhanced the doxorubicin sensitivity
proliferation (MTS) (MDA-MB468 cells [4]; increasing concentrations, versus MCF10A): preferentially inhibited the proliferation
doxorubicin sensitivity (MTS) (MDA-MB468 cells [4]; shScr control cells, 2.5 μM): sensitized
apoptosis (caspase 3/7 activity) (HEK293 cells): induced apoptosis
apoptosis (caspase 3/7 activity) (HEK293 cells; TopBP1-depleted HEK293 cells): could not induce more apoptosis
apoptosis [5]: induced apoptosis
cell killing (caspase 3/7 activation) (Jurkat-T cells): active in killing
interaction between TopBP1 and Miz1 (TopBP1/Miz1 interaction): inhibited the interaction between TopBP1 and Miz1
apoptosis [6]: induced apoptosis
induction of promoter activity on pKL12 and pKL12-E2FAB [7]: could only induce the activity on pKL12, but not on pKL12-E2FAB
